The record followed here is US20250145606A1 (Arcus Biosciences, Inc., priority 2023, published 2025).

One series relates to beagle dog hepatocytes. Briefly: Bioactivation assessment in dog hepatocytes. The series is classed as in vitro ADME. The following applies: 5 μM, 4 hours. The protocol:
(§1) Bioactivation Assessment Procedure
(§2) Pooled male Sprague Dawley rat (BioIVT), male beagle dog (BioIVT), male cynomolgus monkey (BioIVT), and a 50-donor pool of cryopreserved human hepatocytes (BioIVT) was thawed in pre-warmed 37° C. InVitroGro™ HT media (BioIVT), centrifuged, and resuspended in the InVitroGro™ HI media (BioIVT). The number of viable cells was determined by the Trypan blue exclusion method. The cells were diluted to a concentration of two million viable cells per milliliter (viability >80%) and seeded into round-bottom 96-well plates. The test articles were dissolved in DMSO and further diluted in 50% CH3CN and InVitroGro™ HI media with final concentrations of 0.05% DMSO and 0.5% CH3CN in the incubation mixture. Incubation was performed at a final concentration of one million cells per milliliter and 5 μM test compounds with continuous shaking at 1100 rpm in a 37° C., 5/95% CO2/air incubator with 100% relative humidity. After 4 hours, the samples were quenched by addition of 3 volumes of CH3CN, vortexed for 15 minutes, and centrifuged at 4200 rpm for 15 minutes at 10° C. (Sorvall Legend XTR centrifuge, Thermo Scientific, Langenselbold, Germany). 80 μL of the resulting supernatant was transferred into a new plate and mixed with 160 μL water followed by liquid chromatography-high resolution mass spectrometry (LC-HRMS) analysis.
(§3) Structural assignments of metabolites were determined through mass spectral analysis. The level of bioactivation was estimated based on the relative peak area of bioactivation products to all identified metabolites. The following equation was used: […]
(§4) Bioactivation products included glutathione conjugates, imine methides, quinones, diols, and other relevant metabolites.

A further series deals with c-Kit (Homo sapiens (Human), UniProt P10721). In words: Inhibition of c-Kit kinase activity (HTRF KinEASE-TK). The series is classed as biochemical. The conditions noted are these: biochemical. In short, it runs like this:
(§5)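 Recombinant kinases (2 nM CSF1R and c-Kit, 10 nM PDGFRα/β, 2× working) preincubated 1 h with compound in 50 mM HEPES pH 7.4, 5 mM MgCl2 (c-Kit) or 10 mM (others), 2 mM MnCl2; 2× ATP: c-Kit 16 μM, PDGFRα 1 μM, PDGFRβ 40 μM, CSF1R 20 μM. 120 min reaction at rt; TR-FRET 665/620 nm; IC50 by 4-parameter fit.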
(In general: Time-resolved FRET reads energy transfer from a long-lived donor to a nearby acceptor.)

In series [1] the test system is Sprague Dawley rat hepatocytes. Briefly: Bioactivation assessment in rat hepatocytes. The series is classed as in vitro ADME. The conditions noted are these: 5 μM, 4 hours. The protocol: as §1, §2, §3, §4
In a further series the target is CSF1R (Homo sapiens (Human), UniProt P07333). In words: Inhibition of CSF1R kinase activity (HTRF KinEASE-TK). The conditions noted are these: biochemical. The procedure, abridged: as §5
Chain of CSF1R (P07333 20-972): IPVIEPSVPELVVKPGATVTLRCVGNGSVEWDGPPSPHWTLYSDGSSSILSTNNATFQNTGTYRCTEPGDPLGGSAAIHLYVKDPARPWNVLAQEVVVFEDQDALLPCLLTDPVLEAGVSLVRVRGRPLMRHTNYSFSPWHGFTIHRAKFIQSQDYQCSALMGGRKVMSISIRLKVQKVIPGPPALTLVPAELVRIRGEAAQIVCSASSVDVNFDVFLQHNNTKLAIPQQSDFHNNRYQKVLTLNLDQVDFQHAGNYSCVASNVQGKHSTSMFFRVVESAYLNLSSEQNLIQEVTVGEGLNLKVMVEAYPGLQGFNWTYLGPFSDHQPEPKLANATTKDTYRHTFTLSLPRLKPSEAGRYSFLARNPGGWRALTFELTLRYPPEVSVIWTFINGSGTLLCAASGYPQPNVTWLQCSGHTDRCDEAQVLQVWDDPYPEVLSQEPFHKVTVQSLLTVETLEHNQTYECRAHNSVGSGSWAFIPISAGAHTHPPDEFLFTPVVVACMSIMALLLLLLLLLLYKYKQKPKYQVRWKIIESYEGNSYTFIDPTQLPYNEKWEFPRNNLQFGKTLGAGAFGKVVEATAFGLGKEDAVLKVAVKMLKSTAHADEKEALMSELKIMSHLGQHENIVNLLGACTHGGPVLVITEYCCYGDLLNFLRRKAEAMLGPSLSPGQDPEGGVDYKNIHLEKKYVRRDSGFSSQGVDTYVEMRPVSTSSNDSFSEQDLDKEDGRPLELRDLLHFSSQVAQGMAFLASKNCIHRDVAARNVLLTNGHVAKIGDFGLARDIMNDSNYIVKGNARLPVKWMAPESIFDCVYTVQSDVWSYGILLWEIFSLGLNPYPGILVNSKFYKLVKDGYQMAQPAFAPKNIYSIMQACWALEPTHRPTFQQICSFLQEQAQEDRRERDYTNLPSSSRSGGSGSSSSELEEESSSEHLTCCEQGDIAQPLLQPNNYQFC
The target in another series is PDGFRα (Homo sapiens (Human), UniProt P16234). In words: Inhibition of PDGFRα kinase activity (HTRF KinEASE-TK). The conditions noted are these: biochemical. In short, it runs like this: as §5
Chain of PDGFRα (P16234 24-1089): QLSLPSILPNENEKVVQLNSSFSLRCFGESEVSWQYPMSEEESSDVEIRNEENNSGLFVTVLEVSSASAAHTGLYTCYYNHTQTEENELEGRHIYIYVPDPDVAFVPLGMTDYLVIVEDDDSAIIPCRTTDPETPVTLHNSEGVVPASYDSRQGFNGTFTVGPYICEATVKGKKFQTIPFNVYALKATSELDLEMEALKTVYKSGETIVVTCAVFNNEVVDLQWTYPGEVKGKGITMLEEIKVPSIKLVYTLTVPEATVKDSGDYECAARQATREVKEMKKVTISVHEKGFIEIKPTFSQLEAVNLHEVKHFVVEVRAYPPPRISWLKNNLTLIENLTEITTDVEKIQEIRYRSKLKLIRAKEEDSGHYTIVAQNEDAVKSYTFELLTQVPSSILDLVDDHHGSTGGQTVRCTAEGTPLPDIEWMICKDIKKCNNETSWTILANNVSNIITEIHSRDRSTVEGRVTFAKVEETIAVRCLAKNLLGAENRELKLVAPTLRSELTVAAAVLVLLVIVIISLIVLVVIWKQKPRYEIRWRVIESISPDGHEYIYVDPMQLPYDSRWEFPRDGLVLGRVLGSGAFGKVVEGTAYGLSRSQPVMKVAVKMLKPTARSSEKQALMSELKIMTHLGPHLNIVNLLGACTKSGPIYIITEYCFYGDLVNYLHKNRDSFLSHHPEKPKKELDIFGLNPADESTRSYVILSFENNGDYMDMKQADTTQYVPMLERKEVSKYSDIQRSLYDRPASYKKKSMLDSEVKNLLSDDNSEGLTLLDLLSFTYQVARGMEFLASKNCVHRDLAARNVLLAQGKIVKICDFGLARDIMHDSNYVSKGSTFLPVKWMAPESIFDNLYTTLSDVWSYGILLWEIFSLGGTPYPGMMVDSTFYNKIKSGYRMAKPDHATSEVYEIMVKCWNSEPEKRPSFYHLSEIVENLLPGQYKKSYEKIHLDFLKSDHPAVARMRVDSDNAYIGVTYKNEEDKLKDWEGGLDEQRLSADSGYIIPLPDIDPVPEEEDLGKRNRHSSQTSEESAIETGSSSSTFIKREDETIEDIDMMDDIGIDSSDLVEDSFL
The target in another series is FLT3 (Homo sapiens (Human), UniProt P36888). Briefly: Inhibition of FLT3 kinase activity (HTRF KinEASE-TK). The series is classed as biochemical. The conditions noted are these: biochemical. In short, it runs like this:
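FLT3 tyrosine kinase activity was measured with the HTRF KinEASE-TK kit by following phosphorylation of a biotinylated TK peptide. After the 45 min reaction, 10 μL of detection mix was added: 0.2 μM (2×) Streptavidin-XL665 and 2 μM (2×) TK-Antibody-Cryptate in detection buffer. After 60 min, TR-FRET was read on an Envision as the 665 nm/620 nm emission ratio with 320 nm excitation.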

The next series has as its target PDGFRβ (Homo sapiens (Human), UniProt P09619). Briefly: Inhibition of PDGFRβ kinase activity (HTRF KinEASE-TK). The following applies: biochemical. The procedure, abridged:
as §5

Marks after values point to notes of the source that are not given here.

Chain of PDGFRβ (P09619 33-1106): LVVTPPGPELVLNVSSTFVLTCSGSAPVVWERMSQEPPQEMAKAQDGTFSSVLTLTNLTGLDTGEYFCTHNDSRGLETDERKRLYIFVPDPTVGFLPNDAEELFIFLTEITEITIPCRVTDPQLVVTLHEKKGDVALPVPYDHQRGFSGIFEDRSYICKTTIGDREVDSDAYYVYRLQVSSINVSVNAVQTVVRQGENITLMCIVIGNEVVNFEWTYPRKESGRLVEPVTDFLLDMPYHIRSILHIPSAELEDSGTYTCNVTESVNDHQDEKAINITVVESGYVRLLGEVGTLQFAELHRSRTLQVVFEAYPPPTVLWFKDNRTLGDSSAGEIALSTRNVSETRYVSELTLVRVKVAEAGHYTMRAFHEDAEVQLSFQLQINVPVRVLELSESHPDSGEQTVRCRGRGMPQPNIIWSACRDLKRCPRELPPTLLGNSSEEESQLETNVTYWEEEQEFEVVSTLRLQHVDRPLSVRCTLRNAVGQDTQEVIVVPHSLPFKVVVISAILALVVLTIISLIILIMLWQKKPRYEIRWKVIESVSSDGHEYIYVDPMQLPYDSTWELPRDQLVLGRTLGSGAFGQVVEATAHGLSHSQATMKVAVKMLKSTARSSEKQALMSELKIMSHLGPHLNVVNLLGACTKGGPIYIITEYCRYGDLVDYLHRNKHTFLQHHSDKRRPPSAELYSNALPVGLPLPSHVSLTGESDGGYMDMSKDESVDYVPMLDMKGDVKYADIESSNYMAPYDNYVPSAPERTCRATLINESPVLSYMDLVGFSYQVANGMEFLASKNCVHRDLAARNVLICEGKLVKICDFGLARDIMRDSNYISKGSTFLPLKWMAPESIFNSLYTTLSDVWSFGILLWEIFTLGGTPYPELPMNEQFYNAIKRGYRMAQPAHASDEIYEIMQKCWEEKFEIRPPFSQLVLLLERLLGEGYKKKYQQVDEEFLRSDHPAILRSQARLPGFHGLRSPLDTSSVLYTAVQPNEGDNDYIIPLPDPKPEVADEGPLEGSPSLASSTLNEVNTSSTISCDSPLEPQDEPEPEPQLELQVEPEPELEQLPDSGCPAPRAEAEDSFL
Chain of FLT3 (P36888 27-993): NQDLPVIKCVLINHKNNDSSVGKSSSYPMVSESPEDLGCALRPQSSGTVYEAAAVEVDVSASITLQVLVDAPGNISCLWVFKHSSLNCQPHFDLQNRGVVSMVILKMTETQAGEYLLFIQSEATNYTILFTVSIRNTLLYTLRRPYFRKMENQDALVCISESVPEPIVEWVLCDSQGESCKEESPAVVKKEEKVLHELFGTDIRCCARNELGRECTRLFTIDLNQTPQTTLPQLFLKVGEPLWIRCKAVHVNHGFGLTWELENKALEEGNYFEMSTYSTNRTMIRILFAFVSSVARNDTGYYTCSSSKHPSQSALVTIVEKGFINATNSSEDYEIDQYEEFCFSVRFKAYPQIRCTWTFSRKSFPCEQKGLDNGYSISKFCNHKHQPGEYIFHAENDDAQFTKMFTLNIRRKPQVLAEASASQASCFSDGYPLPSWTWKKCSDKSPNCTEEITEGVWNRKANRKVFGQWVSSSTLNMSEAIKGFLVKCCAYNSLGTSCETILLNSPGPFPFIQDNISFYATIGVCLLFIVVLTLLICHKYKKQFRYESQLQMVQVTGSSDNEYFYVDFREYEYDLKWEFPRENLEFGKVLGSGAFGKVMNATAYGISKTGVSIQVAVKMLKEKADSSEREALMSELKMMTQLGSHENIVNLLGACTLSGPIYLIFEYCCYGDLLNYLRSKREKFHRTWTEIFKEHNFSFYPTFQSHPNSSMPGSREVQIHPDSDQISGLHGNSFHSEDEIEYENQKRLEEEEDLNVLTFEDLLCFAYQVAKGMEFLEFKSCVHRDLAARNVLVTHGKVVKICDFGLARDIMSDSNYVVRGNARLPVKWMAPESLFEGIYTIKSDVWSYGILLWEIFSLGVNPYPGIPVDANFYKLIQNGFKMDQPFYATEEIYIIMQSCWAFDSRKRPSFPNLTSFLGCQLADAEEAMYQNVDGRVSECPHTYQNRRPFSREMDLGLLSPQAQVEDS
Chain of c-Kit (P10721 26-976): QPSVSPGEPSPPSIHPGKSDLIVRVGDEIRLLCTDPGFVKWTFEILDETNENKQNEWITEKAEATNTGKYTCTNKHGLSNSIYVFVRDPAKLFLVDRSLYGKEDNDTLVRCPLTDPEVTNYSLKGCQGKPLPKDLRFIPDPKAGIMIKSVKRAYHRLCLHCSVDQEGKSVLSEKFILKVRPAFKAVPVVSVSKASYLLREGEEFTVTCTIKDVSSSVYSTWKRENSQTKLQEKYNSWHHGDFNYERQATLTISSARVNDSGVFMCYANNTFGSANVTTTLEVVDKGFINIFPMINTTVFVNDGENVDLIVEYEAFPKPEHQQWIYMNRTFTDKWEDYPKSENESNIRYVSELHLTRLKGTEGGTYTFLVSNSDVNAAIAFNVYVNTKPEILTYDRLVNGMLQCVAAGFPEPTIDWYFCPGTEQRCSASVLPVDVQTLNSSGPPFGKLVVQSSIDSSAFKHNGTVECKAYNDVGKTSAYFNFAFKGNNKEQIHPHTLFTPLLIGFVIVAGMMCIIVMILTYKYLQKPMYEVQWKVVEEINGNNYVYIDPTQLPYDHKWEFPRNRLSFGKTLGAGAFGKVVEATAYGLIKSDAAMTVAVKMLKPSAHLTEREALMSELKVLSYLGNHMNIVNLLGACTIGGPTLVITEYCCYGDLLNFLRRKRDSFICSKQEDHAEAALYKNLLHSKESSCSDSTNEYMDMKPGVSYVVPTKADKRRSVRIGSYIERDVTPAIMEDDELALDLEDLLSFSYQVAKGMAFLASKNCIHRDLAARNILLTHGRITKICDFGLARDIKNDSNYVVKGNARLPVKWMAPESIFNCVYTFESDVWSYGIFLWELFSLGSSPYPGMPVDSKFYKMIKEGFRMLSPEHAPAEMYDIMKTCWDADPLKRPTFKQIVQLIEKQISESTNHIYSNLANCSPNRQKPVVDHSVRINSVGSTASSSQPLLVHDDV

A word on the IC50: it is the point on the concentration scale where inhibition reaches its midpoint. `Cc1ncc(C(=O)Nc2cc(C(=O)Nc3ccc(CC(F)(F)F)cn3)c(F)cc2C)s1` [Example 1, N-[4-Fluoro-2-methyl-5-[[5-(2,2,2-trifluoroethyl)pyridin-2-yl]carbamoyl]phenyl]-2-methyl-1,3-thiazole-5-carboxamide]: in the series on beagle dog hepatocytes, the “Percent of total metabolism via bioactivation, Dog hepatocytes” value (shortened to “Percent … Dog hepatocytes”) is listed as less than 1%^b. Moreover, the IC50 at c-Kit is less than 100 nM; against CSF1R it was greater than 1000 nM; at PDGFRα, greater than 1000 nM; on FLT3, greater than 1000 nM; at PDGFRβ, greater than 1000 nM. Also, the “Percent of total metabolism via bioactivation, Rat hepatocytes” value (“Percent … Rat hepatocytes” for short) in series [1] is 3-7%^b.

For `Cc1ncc(C(=O)Nc2cc(C(=O)Nc3ccc(OC4CC4)cn3)c(F)cc2C)s1` [Example 2, N-[5-[(5-Cyclopropyloxypyridin-2-yl)carbamoyl]-4-fluoro-2-methylphenyl]-2-methyl-1,3-thiazole-5-carboxamide], in the series on beagle dog hepatocytes, the “Percent … Dog hepatocytes” value is listed as 3-4%^a. In addition, the IC50 at c-Kit was less than 100 nM; on CSF1R, greater than 1000 nM; at PDGFRα, greater than 1000 nM; against FLT3 it was greater than 1000 nM; at PDGFRβ it was greater than 1000 nM. Moreover, the “Percent … Rat hepatocytes” value in series [1] is 1-2%ª.

On to `Cc1ncc(C(=O)Nc2cc(C(=O)Nc3ccc(C4CC4)cn3)c(F)cc2C)s1` [Example 3, N-[5-[(5-Cyclopropylpyridin-2-yl)carbamoyl]-4-fluoro-2-methylphenyl]-2-methyl-1,3-thiazole-5-carboxamide], for which the “Percent … Dog hepatocytes” value in the series on beagle dog hepatocytes amounted to 2%. Further, the IC50 at c-Kit was less than 100 nM; against CSF1R, greater than 1000 nM; against PDGFRα, greater than 1000 nM; against FLT3, greater than 1000 nM; on PDGFRβ, greater than 1000 nM. Also, in series [1], the “Percent … Rat hepatocytes” value is reported as less than 0.1%.

Consider `Cc1ncc(C(=O)Nc2cc(C(=O)Nc3cnc(OCC(C)(F)F)cn3)c(F)cc2C)s1` [Example 4, N-[5-[[5-(2,2-Difluoropropoxy)pyrazin-2-yl]carbamoyl]-4-fluoro-2-methylphenyl]-2-methyl-1,3-thiazole-5-carboxamide], for which the “Percent … Dog hepatocytes” value in the series with beagle dog hepatocytes was less than 1%^a. The IC50 is less than 100 nM against c-Kit; greater than 1000 nM at CSF1R; greater than 1000 nM at PDGFRα; greater than 1000 nM on FLT3; greater than 1000 nM on PDGFRβ. In addition, the “Percent … Rat hepatocytes” value in series [1] is on record as less than 1%^a.

In the case of `Cc1ncc(C(=O)Nc2cc(C(=O)Nc3ccc(CC4CC4)cn3)c(F)cc2C)s1` [Example 5, N-[5-[[5-(Cyclopropylmethyl)pyridin-2-yl]carbamoyl]-4-fluoro-2-methylphenyl]-2-methyl-1,3-thiazole-5-carboxamide], the “Percent … Dog hepatocytes” value with beagle dog hepatocytes is 4%. The half-inhibitory concentration (IC50) was less than 100 nM at c-Kit; greater than 1000 nM on CSF1R; greater than 1000 nM on PDGFRα; greater than 1000 nM against FLT3; greater than 1000 nM against PDGFRβ. Moreover, the “Percent … Rat hepatocytes” value in series [1] is less than 1%.

As for `Cc1ncc(C(=O)Nc2cc(C(=O)Nc3ccc(OC(F)F)cn3)c(F)cc2C)s1` [Example 38, N-[5-[[5-(difluoromethoxy)pyridin-2-yl]carbamoyl]-4-fluoro-2-methylphenyl]-2-methyl-1,3-thiazole-5-carboxamide], in the series with beagle dog hepatocytes, the “Percent … Dog hepatocytes” value is recorded as less than 1%. Besides, the IC50 against c-Kit (HTRF KinEASE-TK) was less than 100 nM; against CSF1R (HTRF KinEASE-TK), greater than 1000 nM; against PDGFRα (HTRF KinEASE-TK) it was greater than 1000 nM; at FLT3 (HTRF KinEASE-TK) it was greater than 1000 nM; against PDGFRβ (HTRF KinEASE-TK), greater than 1000 nM. In series [1], the “Percent … Rat hepatocytes” value is listed as 2%.

`Cc1ncc(C(=O)Nc2cc(C(=O)Nc3ccc(CC(F)(F)F)cn3)c(F)cc2Cl)s1` [Example 46, N-[2-chloro-4-fluoro-5-[[5-(2,2,2-trifluoroethyl)pyridin-2-yl]carbamoyl]phenyl]-2-methyl-1,3-thiazole-5-carboxamide]: in the series on beagle dog hepatocytes, the “Percent … Dog hepatocytes” value was determined as 97%. In addition, the IC50 is less than 100 nM at c-Kit (HTRF KinEASE-TK); greater than 1000 nM at CSF1R (HTRF KinEASE-TK); greater than 1000 nM against PDGFRα (HTRF KinEASE-TK); greater than 1000 nM on FLT3 (HTRF KinEASE-TK); greater than 1000 nM against PDGFRβ (HTRF KinEASE-TK). Besides, the “Percent … Rat hepatocytes” value in series [1] amounted to 80%.
